Laboratory results taken from US20230014181A1, “CULTURE SYSTEM AND METHODS FOR IMPROVED MODELING OF NEUROLOGICAL CONDITIONS” (Genentech, Inc., priority 2021, published 2023).
Where a name gives a salt, the structure may show the parent alone. Read-outs that look alike come from different tables or passages of the source.

What was measured:
[1] = tested on: human iPSC neurons and astrocytes treated with 5 μM sAβ42s; test: Focused small molecule screen, double culture (neuron, astrocyte), rescue from sAβ42s toxicity, high content imaging; format: cell-based; settings: double culture, 5 μM sAβ42s; for percent rescue from sAβ42s toxicity at 50 µM / percent rescue from sAβ42s toxicity at 25 µM: Homo sapiens, iPSC
Experimental: (§1) FIGS. 11A-11D show synapse % rescue versus MAP2% rescue (FIGS. 11A-11B) and beta III tubulin % rescue versus MAP2% rescue (FIGS. 11C-11D), in neurons and astrocytes (FIGS. 11A and 11C) or neurons, astrocytes, and microglia (FIGS. 11B and 11D) treated with 5 μM sAβ42s and small molecules from a focused screen of known neuroprotective agents at multiple concentrations (50 μM, 25 μM, 12.5 μM and 6.25 μM (double culture), 50 μM, 12.5 μM, 3.1 μM and 0.78 μM (triple culture). Small molecules that prevented toxicity in dendrites (MAP2), synapses (Synapsin 1/2), cell count (CUX2), or axons ([…]) at or above 30% were considered hits (red dotted line).
Neurons from both NSC lines were evaluated by immunofluorescence staining. Briefly, cells were fixed with 4% PFA and 4% sucrose at room temperature for 20 minutes using Bravo automation. Fixed cells were then washed 2 times with PBS using Biotek 406 microplate washer (Beckman Coulter), followed by permeabilization and blocking by incubation with a solution containing 1×PBS, 0.1% Triton X-100, 2% donkey serum, and 1% BSA at room temperature for 30 minutes. Blocking solution was removed and cells were incubated with primary antibodies in blocking solution overnight at 4° C. After washing 6 times with PBS on Biotek 406 cell plate washer (Beckman Coulter), cells were then incubated with fluorophore-conjugated secondary antibodies for 1 hour at room temperature in the dark to avoid photobleaching. Cells were then washed 6 more times in with PBS before imaging. Fluorescent images were captured using IN Cell 6000 confocal microscope (GE Healthcare Life Sciences). The image analysis was performed with IN Cell 6000 analysis software.
Prior to experimentation, media volume in wells containing neurons was equalized with liquid handling automation (Bravo) in order to ensure precise control of concentrations. All Aβ42 oligomers, anti-Aβ, small molecules, inflammatory cytokines were prepared at 10× concentration and added to Neuronal Culture Media at an appropriate volume. For the repeated dosing experiments, the media were refreshed 50% at each dosing first, before adding Aβ42 oligomers, and/or anti-Aβ antibody at the specified final concentration.
(§2) In double (neuron, astrocyte) and triple (neuron, astrocyte, microglia) cultures, each small molecule listed in Table 1 was tested in the AD model paradigm at up to four concentrations. Molecules that characterized ≥30% rescue in any of the four measurements of dendrites area (MAP2), synapses count (synapsin 1/2), or cell count (CUX2), or axon area (Beta III Tubulin; “BT3”)) were classified as hits (FIGS. 11A-11D, Table 2, and Table 3).

[2] = tested on: human iPSC neurons, astrocytes and microglia treated with 5 μM sAβ42s; test: Focused small molecule screen, triple culture (neuron, astrocyte, microglia), rescue from sAβ42s toxicity; format: cell-based; settings: for percent rescue from sAβ42s toxicity at 12.5 µM / percent rescue from sAβ42s toxicity at 50 µM / percent rescue from sAβ42s toxicity at 0.78 µM / percent rescue from sAβ42s toxicity at 3.13 µM: Homo sapiens, iPSC
Experimental: as §1
Frozen cells were thawed and immediately seeded at a density of 8,000 cells/well of a 384-well plate onto 8-week old neuron-astrocyte co-culture in Microglia media (BrainPhys™ neuronal media (Stem Cell Technologies) supplemented with 1× B27 with vitamin A, 1×N2 Plus Media Supplement (R&D Systems), 20 ng/mL BDNF, 20 ng/mL GDNF, 1 mM creatine, 200 nM L-ascorbic acid, 1 μg/mL mouse laminin, 0.5 mM GlutaMAX™ (Thermofisher), 0.5× penicillin-streptomycin, 1× normocin, 5 ng/mL TGF-β, 100 ng/mL human IL-34, 1.5 μg/mL cholesterol, 1 ng/mL gondoic acid, 100 ng/mL oleic acid, 460 μM thioglycerol, 1× insulin-transferrin-selenium, 25 ng/mL rhM-CSF, 5.4 μg/mL human insulin solution).
as §2

[3] = 50 μM compound, read-out: % B3T rescue
[4] = 50 μM compound, read-out: % Cux2 rescue
[5] = 50 μM compound, read-out: % MAP2 rescue
[6] = 50 μM compound, read-out: % Synapse rescue
[7] = 12.50 μM compound, read-out: % B3T rescue
[8] = 12.50 μM compound, read-out: % MAP2 rescue
[9] = 12.50 μM compound, read-out: % Synapse rescue
[10] = 50.00 μM compound, read-out: % B3T rescue
[11] = 50.00 μM compound, read-out: % MAP2 rescue
[12] = 50.00 μM compound, read-out: % Synapse rescue
[13] = 3.13 μM compound, read-out: % B3T rescue
[14] = 3.13 μM compound, read-out: % MAP2 rescue
[15] = 3.13 μM compound, read-out: % Synapse rescue

## O=c1cc(-c2ccccc2)oc2c(O)c(O)ccc12 [7,8-Dihydroxyflavone]
[1]; [3]
  percent rescue from sAβ42s toxicity at 50 µM: -14%
[1]; [4]
  percent rescue from sAβ42s toxicity at 50 µM: 42%
[1]; [5]
  percent rescue from sAβ42s toxicity at 50 µM: 6%
[1]; [6]
  percent rescue from sAβ42s toxicity at 50 µM: -2%

## Cc1[nH]c(/C=C2\C(=O)Nc3ccccc32)c(C)c1CCC(=O)O [SU 6668]
[2]; 3.13 μM compound
  % B3T rescue: 34%
  % MAP2 rescue: 31%
  % Synapse rescue: 26%
[2]; 50.00 μM compound
  % B3T rescue: 77%
  % MAP2 rescue: 80%
  % Synapse rescue: 75%

## CN(C)[C@@H]1C(O)=C(C(N)=O)C(=O)[C@@]2(O)C(O)=C3C(=O)c4c(O)ccc(Cl)c4[C@@H](O)[C@H]3C[C@@H]12 [Demeclocydine hydrochloride, Demeclocycline hydrochloride]
[1]; 25 μM compound, read-out: % B3T rescue
  percent rescue from sAβ42s toxicity at 25 µM: 35%
[1]; 25 μM compound, read-out: % Cux2 rescue
  percent rescue from sAβ42s toxicity at 25 µM: 6%
[1]; 25 μM compound, read-out: % MAP2 rescue
  percent rescue from sAβ42s toxicity at 25 µM: 23%
[1]; 25 μM compound, read-out: % Synapse rescue
  percent rescue from sAβ42s toxicity at 25 µM: 15%
[1]; [3]
  percent rescue from sAβ42s toxicity at 50 µM: 63%
[1]; [4]
  percent rescue from sAβ42s toxicity at 50 µM: 33%
[1]; [5]
  percent rescue from sAβ42s toxicity at 50 µM: 39%
[1]; [6]
  percent rescue from sAβ42s toxicity at 50 µM: 27%

## O=C1Nc2ccc(I)cc2/C1=C/c1cc(Br)c(O)c(Br)c1 [GW 5074]
[1]; 6.25 μM compound
  % B3T rescue: 16%
  % Cux2 rescue: 95%
  % MAP2 rescue: 17%
  % Synapse rescue: 8%
[1]; 12.5 μM compound
  % B3T rescue: 9%
  % Cux2 rescue: 76%
  % MAP2 rescue: 12%
  % Synapse rescue: 6%
[1]; 25 μM compound
  % B3T rescue: 14%
  % Cux2 rescue: 115%
  % MAP2 rescue: 19%
  % Synapse rescue: 8%
[1]; 50 μM compound
  % B3T rescue: 48%
  % Cux2 rescue: 162%
  % MAP2 rescue: 54%
  % Synapse rescue: 8%

## CN1C(=O)C(Cc2c[nH]c3ccccc23)NC1=S (centres unmarked) [Necrostatin-1]
[1]; 50 μM compound
  % B3T rescue: 11%
  % Cux2 rescue: 10%
  % MAP2 rescue: 37%
  % Synapse rescue: 15%

## Oc1cc2c(cc1O)CN(C(=S)NCCc1ccc(Cl)cc1)CCC2 [Capsazepine]
[2]; [7]
  percent rescue from sAβ42s toxicity at 12.5 µM: 50%
[2]; [8]
  percent rescue from sAβ42s toxicity at 12.5 µM: 44%
[2]; [9]
  percent rescue from sAβ42s toxicity at 12.5 µM: 44%

## C/C=C1\C(=O)C[C@H]2[C@@H]3CCC4=CC(=O)CC[C@]4(C)[C@H]3CC[C@]12C [Guggulsterone]
[2]; [10]
  percent rescue from sAβ42s toxicity at 50 µM: 36%
[2]; [11]
  percent rescue from sAβ42s toxicity at 50 µM: 19%
[2]; [12]
  percent rescue from sAβ42s toxicity at 50 µM: 17%

## CCOC(=O)c1ccc(N(C)c2csc(-c3ccccc3)n2)cc1 [Neuropathiazol]
[2]; 12.50 μM compound
  % B3T rescue: 35%
  % MAP2 rescue: 44%
  % Synapse rescue: 42%
[2]; 50.00 μM compound
  % B3T rescue: 35%
  % MAP2 rescue: 27%
  % Synapse rescue: 28%

## Lycorine hydrochloride
[2]; 0.78 μM compound
  % B3T rescue: 37%
  % MAP2 rescue: 57%
  % Synapse rescue: 43%
[2]; 3.13 μM compound
  % B3T rescue: 77%
  % MAP2 rescue: 99%
  % Synapse rescue: 80%
[2]; 12.50 μM compound
  % B3T rescue: 83%
  % MAP2 rescue: 93%
  % Synapse rescue: 77%
[2]; 50.00 μM compound
  % B3T rescue: 79%
  % MAP2 rescue: 88%
  % Synapse rescue: 75%

## Cn1sc(=O)n(Cc2ccccc2)c1=O [TDZD-8]
[2]; 50.00 μM compound
  % B3T rescue: 54%
  % MAP2 rescue: −29%
  % Synapse rescue: −8%

## CC(/C=C/C(=O)NO)=C\[C@@H](C)C(=O)c1ccc(N(C)C)cc1 [Trichostatin A]
[2]; 12.50 μM compound
  % B3T rescue: 31%
  % MAP2 rescue: −18%
  % Synapse rescue: 2%
[2]; 50.00 μM compound
  % B3T rescue: 41%
  % MAP2 rescue: −13%
  % Synapse rescue: 1%

## C=C(c1ccc(C(=O)O)c(F)c1)c1cc2c(cc1C)C(C)(C)CCC2(C)C [Fluorobexarotene]
[2]; 3.13 μM compound
  % B3T rescue: 50%
  % MAP2 rescue: 43%
  % Synapse rescue: 34%
[2]; 12.50 μM compound
  % B3T rescue: 33%
  % MAP2 rescue: 40%
  % Synapse rescue: 33%

## CC(C)[C@H](CO)Nc1nc(Nc2cccc(Cl)c2)c2ncn(C(C)C)c2n1 [Purvalanol A]
[2]; 3.13 μM compound
  % B3T rescue: 33%
  % MAP2 rescue: 15%
  % Synapse rescue: 24%

## O=C(NOC[C@H](O)CO)c1ccc(F)c(F)c1Nc1ccc(I)cc1F [PD0325901]
[2]; 0.78 μM compound, read-out: % B3T rescue
  percent rescue from sAβ42s toxicity at 0.78 µM: 48%
[2]; 0.78 μM compound, read-out: % MAP2 rescue
  percent rescue from sAβ42s toxicity at 0.78 µM: 19%
[2]; 0.78 μM compound, read-out: % Synapse rescue
  percent rescue from sAβ42s toxicity at 0.78 µM: 15%
[2]; [13]
  percent rescue from sAβ42s toxicity at 3.13 µM: 52%
[2]; [14]
  percent rescue from sAβ42s toxicity at 3.13 µM: 23%
[2]; [15]
  percent rescue from sAβ42s toxicity at 3.13 µM: 21%
[2]; [7]
  percent rescue from sAβ42s toxicity at 12.5 µM: 43%
[2]; [8]
  percent rescue from sAβ42s toxicity at 12.5 µM: 8%
[2]; [9]
  percent rescue from sAβ42s toxicity at 12.5 µM: 8%
[2]; [10]
  percent rescue from sAβ42s toxicity at 50 µM: 59%
[2]; [11]
  percent rescue from sAβ42s toxicity at 50 µM: 27%
[2]; [12]
  percent rescue from sAβ42s toxicity at 50 µM: 27%

## CCCn1c(C)c(C(=O)c2cccc3ccccc23)c2ccccc21 [JWH 015]
[2]; 12.50 μM compound
  % B3T rescue: 60%
  % MAP2 rescue: 50%
  % Synapse rescue: 43%
[2]; 50.00 μM compound
  % B3T rescue: 42%
  % MAP2 rescue: 38%
  % Synapse rescue: 26%

## CCCCCCCCCCCCCCCCCC(=O)NCCc1ccc(O)c(O)c1 [STEARDA]
[2]; 0.78 μM compound
  % B3T rescue: 27%
  % MAP2 rescue: 30%
  % Synapse rescue: 24%
[2]; 3.13 μM compound
  % B3T rescue: 33%
  % MAP2 rescue: 28%
  % Synapse rescue: 24%
[2]; 12.50 μM compound
  % B3T rescue: 33%
  % MAP2 rescue: 24%
  % Synapse rescue: 21%

## CC(C)CCC[C@@H](C)[C@H]1CC[C@H]2[C@@H]3CCC4=CC(=NO)CC[C@]4(C)[C@H]3CC[C@]12C [TRO 19622]
[2]; [13]
  percent rescue from sAβ42s toxicity at 3.13 µM: 34%
[2]; [14]
  percent rescue from sAβ42s toxicity at 3.13 µM: -25%
[2]; [15]
  percent rescue from sAβ42s toxicity at 3.13 µM: -10%
[2]; [7]
  percent rescue from sAβ42s toxicity at 12.5 µM: 33%
[2]; [8]
  percent rescue from sAβ42s toxicity at 12.5 µM: -36%
[2]; [9]
  percent rescue from sAβ42s toxicity at 12.5 µM: -13%
